One assay has as its system HDAC. To be noted: cited from earlier work.
The test system of another assay is rat fibroblasts. Particulars: cited from earlier work.
Another assay relates to tumors. To be noted: cited from earlier work.
In assay [1] the test system is LNCaP cells (human prostate cancer cells). The assay is described as follows: p53 acetylation, p21 and Bax effects in LNCaP cells. The class given is cell-based.
The test system of the next assay is PC-3 cells. The assay is described as follows: Bax and p21 activation in PC-3 cells (p53-/-, no HDAC2). The format is cell-based. To be noted: do not express HDAC2.

Here are results for 3 compounds from patent US20100234455A1, “Histone Deacetylase Inhibitors” (Errant Gene Therapeutics, LLC, priority 2004, published 2010).

As for `CC(/C=C/C(=O)NO)=C\[C@@H](C)C(=O)c1ccc(N(C)C)cc1` [TSA, trichostatin A], the HDAC activity entry with HDAC is “HDAC activity is inhibited”. The “cell cycle arrest of rat fibroblasts” value in the assay on rat fibroblasts is “causes arrest of rat fibroblasts at the G1 and G2 phases of the cell cycle”. For the same compound, the “formation of tumors in mice” value in the assay on tumors is reported as “prevent the formation of tumors in mice”. In assay [1] (LNCaP cells), the “Bax mitochondrial translocation and cleavage” value is “nor did it affect Bax translocation and cleavage”; the cell cycle arrest entry is “induced p21 and cell cycle arrest”; the p21 levels result is reported as “induced p21”; the “steady state level of cytosolic Bax” value is on record as “did not alter Bax levels”. In the assay on PC-3 cells, the “p53 dependent activation of Bax” value is “absent” and the “p53 independent p21 activation” value is recorded as “p53 independent p21 activation was observed”.
Take `O=C(CCCCCCC(=O)Nc1ccccc1)NO` [SAHA, suberoylanilide hydroxamic acid]: in the assay with HDAC, the HDAC activity result is given as “HDAC activity is inhibited”. Further, the “formation of tumors in mice” value in the assay on tumors is reported as “prevent the formation of tumors in mice”.
Take `O=C(C=CC=CC=Cc1ccccc1)NO` [7-phenyl-2,4,6-heptatrienoylhydroxamic acid]: in assay [1], the “level of histone acetylation” value is listed as “increasing the level of histone acetylation”. Moreover, in assay [1] (LNCaP cells), the “Bax mitochondrial translocation and cleavage” value is “induced Bax mitochondrial translocation and cleavage”; the cell cycle arrest result is “cell cycle arrest, primarily at G2/M interface”; the “degradation of HDAC2” value was “induction of selective degradation of HDAC2”; the “levels of total p53” value was “increases the levels of total p53”. Besides, in assay [1] (LNCaP cells), the p21 levels entry is “p53-dependent increase in p21 levels” and the “steady state level of cytosolic Bax” value is “increased the steady state level of cytosolic Bax”. Besides, the “acetylation of p53 at Lys320” value in assay [1] (Lys320) is given as “not Lys320”. In addition, the “acetylation of p53 at Lys373 and Lys382” value in assay [1] (Lys373 and Lys382) was “stabilizes the acetylation of p53 at amino acids Lys373 and Lys382”. In the assay with PC-3 cells, the “p53 dependent activation of Bax” value is recorded as “absent” and the “p53 independent p21 activation” value is listed as “p53 independent p21 activation was observed”.
